Data: article PMC3573878 (Structure (London, England : 1993), 2012)

Biological target: ex-LdtMt2 (LdtMt2; MT2594; product of gene Rv2518c) (Mycobacterium tuberculosis, UniProt O53223)
Assay: isothermal titration calorimetry, single-site model
Type: binding

C[C@@H](O)[C@H]1C(=O)N2C(C(=O)O)=C(SCCN=CN)C[C@H]12 [imipenem] gave a Kd of 54.8 ± 8.8 nM.
